Results: the NIST ThermoML archive (doi:10.1021/je501133u)

Assay: xn = mol fraction of the nth substance listed
Conditions: 100 kPa, Liquid; for viscosity: Falling or rolling sphere viscometry; for mass density: Vibrating tube method

CCCCCCCO [heptan-1-ol] + CCO
Conditions	mass density, 293.15 K [kg/m3]	mass density, 298.15 K [kg/m3]	mass density, 303.15 K [kg/m3]	mass density, 308.15 K [kg/m3]	viscosity, 293.15 K [mPa·s]	viscosity, 298.15 K [mPa·s]	viscosity, 303.15 K [mPa·s]	viscosity, 308.15 K [mPa·s]
x2 = 0	822.3	818.8	815.3	811.8	7.15	6.07	5.18	4.44
x2 = 0.1	820.6	817.1	813.6	810	6.21	5.29	4.54	3.91
x2 = 0.2004	818.7	815.1	811.6	808	5.36	4.59	3.96	3.44
x2 = 0.3007	816.9	813.3	809.7	806	4.63	4	3.48	3.03
x2 = 0.3995	814.7	811.1	807.4	803.8	4.04	3.51	3.07	2.7
x2 = 0.5007	812.1	808.4	804.7	800.9	3.41	2.99	2.64	2.33
x2 = 0.5995	809	805.3	801.5	797.7	2.85	2.52	2.23	1.99
x2 = 0.7001	805.5	801.6	797.8	793.9	2.34	2.09	1.87	1.67
x2 = 0.8002	801.4	797.4	793.5	789.5	1.9	1.71	1.54	1.39
x2 = 0.9003	796.5	792.4	788.3	784.2	1.52	1.38	1.25	1.13
